Experimental data: article PMC2765529 (Journal of medicinal chemistry, 2009)

What was measured:
[1] = Tissue biodistribution and regional brain uptake in rats; assay type: in vivo, male Sprague-Dawley rats; conditions: for Blood uptake: i.v., mean ± SD
human VAChT = biological target: T1, human VAChT (Homo sapiens, UniProt Q16572); experiment: VAChT binding, competition against [^3H]vesamicol
T1 sequence (Q16572 1-532): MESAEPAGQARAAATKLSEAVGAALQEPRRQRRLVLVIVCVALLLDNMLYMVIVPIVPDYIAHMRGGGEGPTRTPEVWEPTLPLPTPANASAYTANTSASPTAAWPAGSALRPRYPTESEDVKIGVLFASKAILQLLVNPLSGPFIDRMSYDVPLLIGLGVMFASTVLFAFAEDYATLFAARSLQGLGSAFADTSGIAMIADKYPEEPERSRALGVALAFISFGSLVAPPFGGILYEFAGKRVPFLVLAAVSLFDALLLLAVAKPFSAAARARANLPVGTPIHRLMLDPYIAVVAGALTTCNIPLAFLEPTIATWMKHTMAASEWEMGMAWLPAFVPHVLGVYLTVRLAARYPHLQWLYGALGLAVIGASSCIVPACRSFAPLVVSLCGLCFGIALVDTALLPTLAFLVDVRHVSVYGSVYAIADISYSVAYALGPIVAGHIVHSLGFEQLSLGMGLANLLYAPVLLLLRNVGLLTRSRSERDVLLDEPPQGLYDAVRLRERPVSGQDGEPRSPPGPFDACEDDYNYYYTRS

For `O=C(c1ccc([18F])cc1)C1CCN([C@@H]2Cc3ccccc3C[C@H]2O)CC1` (racemic) [(±)-[^18F]9e, (±)-trans-2-Hydroxy-3-(4-(4-[^18F]fluorobenzoyl)piperidino)tetralin], the Bone uptake ([1]; 5 min p.i.) was 0.307 ± 0.011 %ID/g, the Brain uptake ([1]; 5 min p.i.) was 0.606 ± 0.100 %ID/g and the Fat uptake ([1]; 5 min p.i.) was 0.088 ± 0.026 %ID/g. The Heart uptake ([1]; 5 min p.i.) was 0.328 ± 0.014 %ID/g, the Liver uptake ([1]; 5 min p.i.) was 1.939 ± 0.382 %ID/g and the Muscle uptake ([1]; 5 min p.i.) was 0.079 ± 0.015 %ID/g. The Blood uptake ([1]; 5 min p.i., n=4 rats) was 0.122 ± 0.023 %ID/g, the Bone uptake ([1]; 5 min p.i., listed as racemic [^18F]9e) was 0.31 %ID/g and the Bone uptake ([1]; 30 min p.i.) was 0.445 ± 0.032 %ID/g. It also gave a Brain uptake ([1]; 30 min p.i.) of 0.153 ± 0.044 %ID/g, a Fat uptake ([1]; 30 min p.i.) of 0.177 ± 0.039 %ID/g and a Heart uptake ([1]; 30 min p.i.) of 0.141 ± 0.005 %ID/g. It also gave a Liver uptake ([1]; 30 min p.i.) of 1.504 ± 0.271 %ID/g, a Lung uptake ([1]; 30 min p.i.) of 0.553 ± 0.056 %ID/g and a Muscle uptake ([1]; 30 min p.i.) of 0.071 ± 0.006 %ID/g. For the same compound, the Blood uptake ([1]; 30 min p.i., n=4 rats) was 0.071 ± 0.009 %ID/g, the Bone uptake ([1]; 1 h p.i.) was 0.623 ± 0.080 %ID/g and the Brain uptake ([1]; 1 h p.i.) was 0.095 ± 0.012 %ID/g. It also gave a Fat uptake ([1]; 1 h p.i.) of 0.196 ± 0.035 %ID/g, a Heart uptake ([1]; 1 h p.i.) of 0.094 ± 0.008 %ID/g and a Lung uptake ([1]; 1 h p.i.) of 0.346 ± 0.045 %ID/g. It also gave a Muscle uptake ([1]; 1 h p.i.) of 0.076 ± 0.012 %ID/g, a Blood uptake ([1]; 1 h p.i., n=4 rats) of 0.043 ± 0.003 %ID/g and a Bone uptake ([1]; 2 h p.i.) of 0.739 ± 0.044 %ID/g. For the same compound, the Brain uptake ([1]; 2 h p.i.) was 0.059 ± 0.008 %ID/g, the Fat uptake ([1]; 2 h p.i.) was 0.173 ± 0.042 %ID/g and the Heart uptake ([1]; 2 h p.i.) was 0.056 ± 0.007 %ID/g. The Kidney uptake ([1]; 2 h p.i.) was 0.853 ± 0.171 %ID/g, the Liver uptake ([1]; 2 h p.i.) was 1.188 ± 0.158 %ID/g and the Lung uptake ([1]; 2 h p.i.) was 0.223 ± 0.014 %ID/g. It also gave a Muscle uptake ([1]; 2 h p.i.) of 0.047 ± 0.006 %ID/g and a Blood uptake ([1]; 2 h p.i., n=4 rats) of 0.027 ± 0.004 %ID/g.

Work on `O=C(c1ccc([N+](=O)[O-])cc1)C1CCN([C@@H]2Cc3ccccc3C[C@H]2O)CC1` (racemic) [Compound 9d, (±)-trans-2-Hydroxy-3-(4-(4-nitrobenzoyl)piperidino)tetralin] yielded an IC50 (human VAChT) of 0.48 ± 0.03 nM.

Work on `O=C(c1ccc(F)cc1)C1CCN([C@@H]2Cc3ccccc3C[C@H]2O)CC1` (single isomer, unassigned) [(+)-9e] yielded a Ki (human VAChT; VAChT (Ki [nM]), [^3H]vesamicol competition, mean ± SEM) of 108 ± 15 nM.

For “(+)-trans-2-Hydroxy-3-(4-(4-[^18F]fluorobenzoyl)piperidino)tetralin [(+)-[^18F]9e]”, the Bone uptake ([1]; 5 min p.i.) was 0.187 ± 0.015 %ID/g, the Brain uptake ([1]; 5 min p.i.) was 0.350 ± 0.040 %ID/g and the Fat uptake ([1]; 5 min p.i.) was 0.052 ± 0.017 %ID/g. The Heart uptake ([1]; 5 min p.i.) was 0.194 ± 0.006 %ID/g, the Kidney uptake ([1]; 5 min p.i.) was 0.791 ± 0.123 %ID/g and the Liver uptake ([1]; 5 min p.i.) was 1.849 ± 0.566 %ID/g. The Lung uptake ([1]; 5 min p.i.) was 0.904 ± 0.161 %ID/g, the Muscle uptake ([1]; 5 min p.i.) was 0.047 ± 0.010 %ID/g and the “Ratio Striatum: Cerebellum” value ([1]; 5 min p.i.) was 1.15 ± 0.04. For the same compound, the “Ratio Striatum: Cortex” value ([1]; 5 min p.i.) was 0.92 ± 0.02, the “Ratio Striatum: Hippocampus” value ([1]; 5 min p.i.) was 0.99 ± 0.04 and the “Ratio Striatum: Total Brain” value ([1]; 5 min p.i.) was 1.02 ± 0.03. For the same compound, the Blood uptake ([1]; 5 min p.i., n=4 rats) was 0.136 ± 0.020 %ID/g, the “Ratio Striatum: Blood” value ([1]; 5 min p.i., %ID/g striatum divided by %ID/g non-striatal tissue, n=4 rats) was 2.67 ± 0.57 and the Bone uptake ([1]; 30 min p.i.) was 0.277 ± 0.080 %ID/g. The Brain uptake ([1]; 30 min p.i.) was 0.071 ± 0.012 %ID/g, the Fat uptake ([1]; 30 min p.i.) was 0.108 ± 0.053 %ID/g and the Heart uptake ([1]; 30 min p.i.) was 0.094 ± 0.013 %ID/g. It also gave a Kidney uptake ([1]; 30 min p.i.) of 0.416 ± 0.048 %ID/g, a Liver uptake ([1]; 30 min p.i.) of 1.239 ± 0.271 %ID/g and a Lung uptake ([1]; 30 min p.i.) of 0.332 ± 0.073 %ID/g. The Muscle uptake ([1]; 30 min p.i.) was 0.051 ± 0.010 %ID/g, the “Ratio Striatum: Blood” value ([1]; 30 min p.i.) was 0.95 ± 0.18 and the “Ratio Striatum: Cerebellum” value ([1]; 30 min p.i.) was 1.3 ± 0.07. For the same compound, the “Ratio Striatum: Cortex” value ([1]; 30 min p.i.) was 1.08 ± 0.09, the “Ratio Striatum: Hippocampus” value ([1]; 30 min p.i.) was 0.93 ± 0.03 and the “Ratio Striatum: Total Brain” value ([1]; 30 min p.i.) was 1.13 ± 0.04. It also gave a Blood uptake ([1]; 30 min p.i., n=4 rats) of 0.087 ± 0.016 %ID/g, a Bone uptake ([1]; 1 h p.i.) of 0.399 ± 0.078 %ID/g and a Brain uptake ([1]; 1 h p.i.) of 0.041 ± 0.002 %ID/g. The Fat uptake ([1]; 1 h p.i.) was 0.154 ± 0.065 %ID/g, the Heart uptake ([1]; 1 h p.i.) was 0.051 ± 0.005 %ID/g and the Kidney uptake ([1]; 1 h p.i.) was 0.291 ± 0.032 %ID/g. For the same compound, the Liver uptake ([1]; 1 h p.i.) was 0.814 ± 0.120 %ID/g, the Lung uptake ([1]; 1 h p.i.) was 0.188 ± 0.035 %ID/g and the Muscle uptake ([1]; 1 h p.i.) was 0.034 ± 0.008 %ID/g. For the same compound, the “Ratio Striatum: Blood” value ([1]; 1 h p.i.) was 0.9 ± 0.23, the “Ratio Striatum: Cerebellum” value ([1]; 1 h p.i.) was 1.17 ± 0.12 and the “Ratio Striatum: Cortex” value ([1]; 1 h p.i.) was 0.95 ± 0.09. The “Ratio Striatum: Hippocampus” value ([1]; 1 h p.i.) was 0.98 ± 0.14, the “Ratio Striatum: Total Brain” value ([1]; 1 h p.i.) was 1.02 ± 0.09 and the Blood uptake ([1]; 1 h p.i., n=4 rats) was 0.048 ± 0.007 %ID/g. It also gave a Bone uptake ([1]; 2 h p.i.) of 0.532 ± 0.096 %ID/g, a Brain uptake ([1]; 2 h p.i.) of 0.022 ± 0.004 %ID/g and a Fat uptake ([1]; 2 h p.i.) of 0.150 ± 0.062 %ID/g. The Heart uptake ([1]; 2 h p.i.) was 0.031 ± 0.006 %ID/g, the Kidney uptake ([1]; 2 h p.i.) was 0.194 ± 0.027 %ID/g and the Liver uptake ([1]; 2 h p.i.) was 0.692 ± 0.081 %ID/g. The Lung uptake ([1]; 2 h p.i.) was 0.112 ± 0.023 %ID/g, the Muscle uptake ([1]; 2 h p.i.) was 0.022 ± 0.005 %ID/g and the “Ratio Striatum: Blood” value ([1]; 2 h p.i.) was 0.87 ± 0.11. The “Ratio Striatum: Cerebellum” value ([1]; 2 h p.i.) was 1.14 ± 0.09, the “Ratio Striatum: Cortex” value ([1]; 2 h p.i.) was 0.91 ± 0.15 and the “Ratio Striatum: Hippocampus” value ([1]; 2 h p.i.) was 0.99 ± 0.08. The “Ratio Striatum: Total Brain” value ([1]; 2 h p.i.) was 1.04 ± 0.06 and the Blood uptake ([1]; 2 h p.i., n=4 rats) was 0.027 ± 0.002 %ID/g.
